# Read-outs that look alike come from different tables or passages of the source.
# Key:
# HB-EGF [1] = target: T1, HB-EGF (Homo sapiens, UniProt Q99075); assay: SPR; also competition ELISA against immobilized heparin (IC50 =[…]); assay type: binding
# T1 construct: gene HBEGF
# HB-EGF [2] = target: T1, HB-EGF; assay: as above; assay type: binding; remark: listed apart in the source
# T1 sequence (Q99075 63-148): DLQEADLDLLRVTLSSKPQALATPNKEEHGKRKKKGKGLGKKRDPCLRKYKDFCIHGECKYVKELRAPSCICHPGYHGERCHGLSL
Kd (HB-EGF [1]) [µM],Kd (HB-EGF [2]) [µM],SMILES
11.1,–,"CC(=O)N[C@H]1[C@@H](O[C@H]2[C@H](O)[C@@H](O)[C@H](OCCCN)O[C@H]2C(=O)O)O[C@H](COS(=O)(=O)O)[C@@H](O[C@@H]2O[C@@H](C(=O)O)[C@@H](O[C@H]3O[C@H](COS(=O)(=O)O)[C@@H](O)[C@H](O)[C@H]3NC(C)=O)[C@H](O)[C@H]2O)[C@@H]1O [compound 7, 6-O-S HS tetrasaccharide (7)]"
–,11.1,"CC(=O)N[C@H]1[C@@H](O[C@H]2[C@H](O)[C@@H](O)[C@H](OCCCN)O[C@H]2C(=O)O)O[C@H](COP(=O)(O)O)[C@@H](O[C@@H]2O[C@@H](C(=O)O)[C@@H](O[C@H]3O[C@H](COP(=O)(O)O)[C@@H](O)[C@H](O)[C@H]3NC(C)=O)[C@H](O)[C@H]2O)[C@@H]1O [compound 8, 6-O-phosphated HS tetrasaccharide (8)]"
